Source: patent publication US20030215888A1, “Androgen receptor overexpressing skeletal myoblasts” (Pfizer Inc., priority 2002, published 2003)

How the values were obtained:
C2hAR57 cells = experiment: [3H]-thymidine uptake assay, C2hAR57 cells; assay type: cell-based, mouse; conditions: for effect on [3H]-thymidine uptake: 48 hours exposure
Description: After 48 hours exposure to the test agents, medium containing 0.1 μCi [^3H]-thymidine (82 Ci/mmol, Amersham, Buckinghamshire, UK) per well was added and incubation was continued for two additional hours at 37° C. The assay was terminated by aspirating the culture medium and washing with ice-cold phosphate buffered saline followed by 5% trichloroacetic acid. The cells where then lysed by applying 0.3 N NaOH (75 μl per well) followed by 0.3 N HCl (75 μl per well) to neutralize the NaOH. The radioactivity in 50-μl aliquots was determined by liquid scintillation counting in 96-well plates (Packard Instrument Corporation) using a TopCount™ Scintillation Counter (Packard Instrument Corporation).

androgen receptor = biological target: T1, androgen receptor (Homo sapiens, UniProt P10275); conditions: read-out: IC50 (known affinities for the androgen receptor); printed beside rank order potency on inhibition of [3H]-thymidine uptake; cited from earlier work
T1 sequence (P10275 1-920): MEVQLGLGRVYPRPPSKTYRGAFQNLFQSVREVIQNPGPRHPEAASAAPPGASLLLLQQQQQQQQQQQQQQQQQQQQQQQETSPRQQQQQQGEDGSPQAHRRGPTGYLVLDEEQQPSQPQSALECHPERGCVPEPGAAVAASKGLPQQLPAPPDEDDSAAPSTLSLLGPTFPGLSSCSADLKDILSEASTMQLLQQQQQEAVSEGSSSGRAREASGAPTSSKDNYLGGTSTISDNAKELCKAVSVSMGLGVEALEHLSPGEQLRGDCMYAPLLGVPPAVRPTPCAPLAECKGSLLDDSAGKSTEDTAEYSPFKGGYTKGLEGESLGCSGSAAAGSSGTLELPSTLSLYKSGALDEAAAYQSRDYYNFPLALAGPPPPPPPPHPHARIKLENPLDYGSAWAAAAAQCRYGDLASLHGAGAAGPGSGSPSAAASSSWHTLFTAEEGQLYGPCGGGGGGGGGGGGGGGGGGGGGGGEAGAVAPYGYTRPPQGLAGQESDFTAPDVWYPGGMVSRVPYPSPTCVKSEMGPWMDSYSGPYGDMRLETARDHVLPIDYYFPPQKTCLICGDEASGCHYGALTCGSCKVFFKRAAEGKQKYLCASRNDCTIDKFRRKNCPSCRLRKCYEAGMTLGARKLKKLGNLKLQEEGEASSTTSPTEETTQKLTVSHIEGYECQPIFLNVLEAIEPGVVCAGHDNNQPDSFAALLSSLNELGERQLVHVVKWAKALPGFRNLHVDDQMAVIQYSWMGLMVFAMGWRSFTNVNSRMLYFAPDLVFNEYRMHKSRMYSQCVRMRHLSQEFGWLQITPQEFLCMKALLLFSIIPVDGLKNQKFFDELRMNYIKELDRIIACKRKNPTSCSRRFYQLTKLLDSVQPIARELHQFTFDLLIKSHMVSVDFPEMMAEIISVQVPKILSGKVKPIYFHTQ

## CC(C)(O)C(=O)Nc1ccc([N+](=O)[O-])c(C(F)(F)F)c1 [2-hydroxyflutamide]
C2hAR57 cells; concomitant addition with 0.1 nM DHT
  reversal of the inhibition of [3H]-thymidine uptake by 0.1 nM DHT: completely reversed

## C[C@]12CC[C@H]3[C@@H](CCC4=CC(=O)CC[C@@]43C)[C@@H]1CC[C@@H]2O [testosterone]
C2hAR57 cells
  effect on [3H]-thymidine uptake: dose-dependent inhibitory effects

## C[C@]12Cc3c[nH]nc3C[C@@H]1CC[C@@H]1[C@@H]2CC[C@@]2(C)[C@H]1CC[C@]2(C)O [stanozolol]
C2hAR57 cells
  effect on [3H]-thymidine uptake: dose-dependent inhibitory effects

## C[C@]12COC(=O)C[C@@H]1CC[C@@H]1[C@@H]2CC[C@@]2(C)[C@H]1CC[C@]2(C)O [oxandrolone]
C2hAR57 cells
  effect on [3H]-thymidine uptake: dose-dependent inhibitory effects
Androgen receptor
  IC50: 28.4 nM
